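In this assay, cells in 96-well plates receive the compound at five concentrations for 48 hours. Endpoints are linearly interpolated between the surrounding concentrations. Abbreviation: GI50, concentration required for 50% inhibition of growth.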 Active and inactive are the calls of the source. No stated cut-off is given here; in the data, active = GI50 up to about 1.1 µM and inactive = higher.
Experiments:
Assay in all cases: inhibition of tumour cell growth, NCI panel, 48 h
[1] = test system: DLD-1
[2] = test system: DMS-114
[3] = test system: DMS-273
[4] = test system: HOP-18
[5] = test system: KM-20L2
[6] = test system: LXFL 529
[7] = test system: SNB-78
[8] = test system: XF498
[9] = test system: RXF 631

Measured: GI50

CCOc1ccc(C(CN2CCOCC2)C(C)=O)cc1OC (stereo not drawn)
inactive: [1] 10.6 µM | [2] 15.7 µM | [3] 11.3 µM | [4] 16.2 µM | [5] 18.8 µM | [6] 4.46 µM | [7] 20.7 µM | [8] 25.3 µM

CCCCCCC(O)CC[C@H]1CCC[C@@H](C)N1 (stereo partly drawn)
inactive: [1] > 100 µM | [2] > 31.6 µM | [3] > 100 µM | [4] > 100 µM | [5] > 10 µM | [6] > 100 µM | [7] > 100 µM

CC(=O)Nc1ccc(C(=O)N2N=C(C)/C(=C\c3c(O)ccc4ccccc34)C2=O)cc1
inactive: [1] 30.4 µM | [2] 54.2 µM | [3] > 100 µM | [4] 83 µM | [7] > 100 µM | [8] 28.9 µM

O=S(=O)(N/N=C/c1ccc(/C=N/NS(=O)(=O)c2ccccc2)cc1)c1ccccc1
inactive: [2] 54.8 µM | [3] 46.8 µM | [4] 84.3 µM | [5] > 100 µM | [9] 36.4 µM | [7] 61.8 µM | [8] 68.9 µM

Cc1cccc(NC(=O)c2cc3cc(/N=N/c4ccccc4Cl)ccc3oc2=O)c1
inactive: [1] 26.4 µM | [2] 22.7 µM | [3] 26.9 µM | [4] 72.9 µM | [5] > 100 µM | [6] 27.2 µM | [9] 25.1 µM | [7] 59.7 µM | [8] 24.2 µM

O=S1(=O)OCCOS(=O)(=O)C1Cc1ccccc1
inactive: [1] 43 µM | [2] 38.2 µM | [3] 45.4 µM | [4] 23.5 µM | [5] 43 µM | [7] > 100 µM | [8] 19.2 µM

Cc1cc(C)c(C2=NO[C@@H]3C(=O)N(c4ccc(Cc5ccc(N6C(=O)[C@H]7C(c8c(C)cc(C)cc8C)=NO[C@H]7C6=O)cc5)cc4)C(=O)[C@H]23)c(C)c1
inactive: [1] > 100 µM | [2] > 100 µM | [3] > 100 µM | [4] > 100 µM | [5] > 100 µM | [6] > 100 µM | [7] > 100 µM | [8] > 100 µM

CCOP(=O)(OCC)C1C(=O)O[C@H]2CCCC[C@@H]12 (stereo partly drawn)
inactive: [1] > 100 µM | [2] > 100 µM | [3] > 100 µM | [4] 40.6 µM | [5] > 100 µM | [6] > 100 µM | [7] > 100 µM | [8] > 100 µM

CC1=NN(C(=O)Cc2ccccc2)C(=O)/C1=C\c1ccccc1O
inactive: [1] > 100 µM | [2] > 100 µM | [5] > 100 µM | [6] > 100 µM | [7] > 100 µM | [8] > 100 µM

CN1CCCc2nc3ccccc3n2C1
inactive: [1] > 100 µM | [2] > 100 µM | [3] > 100 µM | [4] > 100 µM | [5] > 100 µM | [6] > 100 µM | [7] > 100 µM | [8] > 100 µM

Cn1cc(NC(=O)c2cc(NC(=O)CCCCCCCCCCC(=O)Nc3cc(C(=O)Nc4cc(C(=O)NCCC(=N)N)n(C)c4)n(C)c3)cn2C)cc1C(=O)NCCC(=N)N
inactive: [1] 27.9 µM | [3] 28.2 µM | [4] 15.2 µM | [5] 27 µM | [6] 16.9 µM | [7] 46.7 µM | [8] > 100 µM

N#C/C(=C\c1ccccc1Br)C(=O)c1ccccc1
inactive: [2] 97.1 µM | [3] 26.8 µM | [5] > 87.3 µM | [6] 12.3 µM | [9] > 100 µM | [7] 6.67 µM | [8] > 50.2 µM

From ChEMBL document CHEMBL1201862, “PubChem BioAssay data set” (2004)
